Experimental findings from PMC4012445, “Spirocyclic Drimanes from the Marine Fungus Stachybotrys sp. Strain MF347” (Marine Drugs, 2014) are described below.

Counter-ions that a name gives are not always drawn. Like-named read-outs stand apart in the source and are kept apart here. A value given as a limit tells only on which side of the number the result lay.

As a reminder, the IC50 is the concentration needed to halve the response being measured.

In data set [1] the test system is Staphylococcus epidermidis (DSM 20044). In words: Antibiotic activity against Staphylococcus epidermidis. It is filed as cell-based. The conditions noted are these: DSM20044, growth inhibition, 0.1–50 µM analyzed twice in duplicates, read-out: IC50, antibiotic activity, S. epidermidis.
Description: (§1) The antimicrobial activities of 1–13 against the bacterium Bacillus subtilis (DSM 347) and the human pathogenic yeast Candida albicans (DSM 1386) were determined according to Ohlendorf et al., 2012 [26].The bioassays using the clinically relevant bacterial strains Staphylococcus epidermidis (DSM 20044), the methicillin-resistant Staphylococcus aureus (MRSA) (DSM 18827), and Klebsiella pneumoniae DSM 30104 were performed as described by Silber et al., 2013 [27]. S. aureus and K. pneumoniae were investigated in the same manner as S. epidermidis. […] The concentration of the compounds used in the initial bioassays was 100 µM (antibiotic tests), 50 µM (cytotoxic tests), and 10 µM (enzymatic tests), respectively. […] Positive controls were carried out with chloramphenicol (bacteria), nystatin (yeast), clotrimazole (fungi), tamoxifen citrate (cell lines), rolipram (PDE-4B2), huperzine (AchE), and TDZD-8 (GSK-3β).
The subject of data set [2] is Bacillus subtilis (DSM 347). Nature of the data set: Antibiotic activity against Bacillus subtilis. The conditions noted are these: DSM347, growth inhibition, 0.1–50 µM analyzed twice in duplicates, read-out: IC50, antibiotic activity, B. subtilis. It is filed as cell-based.
Description: as §1
For data set [3], the system named is methicillin-resistant Staphylococcus aureus (MRSA) (DSM 18827). In words: Antibiotic activity against methicillin-resistant Staphylococcus aureus. It counts as cell-based. The conditions noted are these: read-out: IC50, S. aureus MRSA.
Description: as §1
The nature of data set [4]: Cytotoxic activity against NIH-3T3. It counts as cell-based.
Description: The concentration of the compounds used in the initial bioassays was 100 µM (antibiotic tests), 50 µM (cytotoxic tests), and 10 µM (enzymatic tests), respectively. […] Positive controls were carried out with chloramphenicol (bacteria), nystatin (yeast), clotrimazole (fungi), tamoxifen citrate (cell lines), rolipram (PDE-4B2), huperzine (AchE), and TDZD-8 (GSK-3β).
Where [5] appears, read: human, HepG2 hepatocellular carcinoma cells.
The mark [6] stands for this setting: growth inhibition, 0.1–50 µM analyzed twice in duplicates.
Setting [7] is: NIH-3T3 fibroblast cells, mouse fibroblasts cell line, 0.1–50 µM analyzed twice in duplicates, read-out: IC50, cytotoxic activity, NIH-3T3.

Turning to `O=C(N[C@H](CO)[C@H](O)c1ccc([N+](=O)[O-])cc1)C(Cl)Cl` [Chloramphenicol, chloramphenicol, reference compound], the half-maximal inhibitory concentration (IC50) in data set [1] is 1810 nM; in data set [2] it was 1450 nM; in data set [3], 2460 nM.

Consider `CC1CCC2C(C)(C)C(O)CCC2(C)C12Cc1c(O)cc3c(c1O2)CN(C1OCc2cc(O)c4c(c21)OC1(C4)C(C)CCC2C(C)(C)C(O)CCC21C)C3=O` (stereo not shown) [Compound 2, stachyin B], for which the concentration for half-maximal inhibition (IC50) was 1020 nM in data set [1]; 1420 nM in data set [2]; 14.3 µM in the data set “in vitro” (setting [5]); 1750 nM in data set [3] (setting [6]); 13 µM in data set [4] (setting [7]).

In the case of `C[C@H]1CC[C@@H]2C(C)(C)[C@@H](O)[C@H](O)C[C@@]2(C)[C@]12Cc1c(O)cc3c(c1O2)CN(CCCCC(C(=O)O)N1Cc2c(cc(O)c4c2O[C@@]2(C4)[C@@H](C)CC[C@@H]4C(C)(C)[C@@H](O)[C@@H](O)C[C@]42C)C1=O)C3=O` (stereo partly shown) [Compound 11, stachybocin B], the IC50 is 4440 nM in data set [1]; 1770 nM in data set [2]; greater than 50 µM in the data set “in vitro” (setting [5]); 3940 nM in data set [3] (setting [6]); greater than 50 µM in data set [4] (setting [7]).

Regarding `C[C@H]1CC[C@@H]2C(C)(C)[C@@H](O)CC[C@@]2(C)[C@]12Cc1c(O)cc3c(c1O2)CN(CCCCC(C(=O)O)N1Cc2c(cc(O)c4c2O[C@@]2(C4)[C@@H](C)CC[C@@H]4C(C)(C)[C@@H](O)CC[C@]42C)C1=O)C3=O` (stereo partly shown) [Compound 12, stachybocin A], the concentration for half-maximal inhibition (IC50) in data set [1] is 2840 nM; in data set [2] it was 2030 nM; in “in vitro”, greater than 50 µM; in data set [3], 3710 nM; in data set [4] (mouse fibroblasts cell line, 0.1–50 µM analyzed twice in duplicates, read-out: IC50, cytotoxic activity, NIH-3T3) it was greater than 50 µM.

With `CC(C)=CCC/C(C)=C/CC/C(C)=C/Cc1c(O)cc(C)c(C=O)c1O` [Compound 13, ilicicolin B], the IC50 in data set [1] was 3180 nM; in data set [2], 1060 nM; in “in vitro” (setting [5]), greater than 50 µM; in data set [3] (setting [6]), 740 nM; in data set [4] (setting [7]), 30 µM.

Take `CC/C(=C(\c1ccccc1)c1ccc(OCCN(C)C)cc1)c1ccccc1` [tamoxifen citrate, reference compound]: the values for the IC50 (in “in vitro” (human); in data set [4] (mouse)) were 17.9 µM and 16.4 µM, respectively.
